test system: HCV replicon (BB7 sequence) in Huh-7-Clone A cells; test: HCV replicon assay: ELISA of NS5A protein in replicon-containing cells (Inhibition of Viral RNA Replication); format: cell-based; details: Hepatitis C virus; HCV replicon assay; ranges of 50% effective concentration (EC50); read-out: Replicon
From the text: Antiviral activity of representative compounds of the invention was first evaluated in a human liver-derived cell line (Huh-7-Clone A) containing the HCV replicon (BB7 sequence) (See Lohmann et al. Science. 1999, 285:110-3; Blight K J et al., Science. 2000, 290:1972-4; Pietschmann, T. et al., J. Virol. 2001, 73:1252-1264; and Lohmann, V. et al., J. Virol. 2001, 75:1437-1449). The HCV replicon is a subgenomic viral RNA that expresses the HCV proteins required for its own replication. These proteins include non-structural proteins NS3, NS4A, NS4B, NS5A and NS5B. The replicon also contains a foreign gene encoding a drug-selectable marker (neomycin phosphotransferase) to allow for G418 (neomycin) selection of cells that contain the replicon.
An ELISA (enzyme-linked immunosorbant assay) was used to determine the effect of compounds within the scope of the invention on the amount of HCV NS5A protein produced after a 72-hour incubation of the replicon-containing cells in the presence of varying concentrations of compound. COSTAR® 96-well cell culture plates were used but other known cell culture plates may be used. After incubation, media is removed from wells and the cells are fixed to the assay plate using 0.05% glutaraldehyde. The glutaraldehyde is then washed off using phosphate-buffered saline (PBS) following a 1 hour incubation and cells are blocked for non-specific antibody binding using for example SUPERBLOCK® reagent (blocking buffer) in PBS. The blocking agent is rinsed from the cells with PBS after 1 hour at 37° C. and primary monoclonal antibody is added to each well containing compound. Primary antibody is incubated for 1 hour at 37° C. and rinsed 3 times with PBS containing 0.02% TWEEN-20™ before addition of Horseradish Peroxidase (HRP) conjugated secondary antibody. HRP is incubated for 1 hour at 37° C. and rinsed several times, first with PBS/TWEEN-20™ followed by PBS alone. To quantify peroxidase activity, 3,3′,5, 5′-tetramethylbenzidine (TMB) substrate is added to the plate and after 30 minutes, the plates are read in an ELISA plate reader at an OD of 650 nm. Compound dose response was measured in an 8-point dose curve diluted serially to determine the inhibitory concentration at 50% (EC50 value). […] Ranges of 50% effective concentrations (EC50s) for representative compounds within the scope of this invention are listed in Table 1. Preferred compounds have 50% effective concentrations at about 30 μM or less, more preferred compounds have 50% effective concentrations at about 5 μM or less, and most preferred compounds have 50% effective concentrations at about 0.5 μM or less.

For CNC(=O)c1c(-c2ccc(F)cc2)oc2cc(N(C)S(C)(=O)=O)c(OC(C)c3nccs3)cc12 (stereo not drawn) [Example 408, 2-(4-Fluoro-phenyl)-6-(methanesulfonyl-methyl-amino)-5-(1-thiazol-2-yl-ethoxy)-benzofuran-3-carboxylic acid methylamide], the EC50 was < 1 µM.

target: T1, HCV NS5B (Hepatitis C virus genotype 1b, UniProt Q9WMX2); test: Inhibition of viral RNA-dependent RNA polymerase (RdRp), in vitro biochemical assay; design: species or system HCV genotype 1b virus (BB7); details: HCV NS5B RdRp, BB7 (genotype 1b); reported as class symbols; read-out: HCV pol-BB7 IC50
T1 construct: fusion protein, of which the carboxyl terminal 21 amino acids were removed to enhance its solubility; His tag (GSHHHHHH); made in house; host or cells: E. coli
From the text: The HCV NS5B-directed RdRp activity was established and characterized in a standard in vitro biochemical assay using a purified HCV NS5B protein derived from the consensus sequence of a patient infected with HCV genotype 1b virus (BB7). (See Blight K J et al., Science. 2000, 290:1972-4). The NS5B consensus sequence was cloned and expressed in E. coli as a histidine tagged (GSHHHHHH) fusion protein, of which the carboxyl terminal 21 amino acids were removed to enhance its solubility.
In addition to evaluating their activity in the replicon assay, representative compounds within the scope of the present invention, as shown in examples 1-453 of Table 1, were also evaluated for antiviral activity using this assay. A measure of the inhibitory activity of compounds of the invention may be expressed as IC50 values. IC50 values represent the concentration of the compound at which 50% of the RdRp activity is inhibited. […] These low concentrations of test compounds required to achieve 50% inhibition of the RdRp activity indicate that the compounds of the invention are effective at inhibiting RNA synthesis by viral RdRp enzymes.

Compared with CNC(=O)c1c(-c2ccccc2)oc2ccc(O)cc12 [Example 453, 5-Hydroxy-2-phenyl-benzofuran-3-carboxylic acid methylamide], CNC(=O)c1c(-c2ccc(F)cc2)oc2cc(-c3nnco3)c(OC)cc12 [Example 449, 2-(4-Fluoro-phenyl)-5-methoxy-6-[1,3,4]oxadiazol-2-yl-benzofuran-3-carboxylic acid methylamide] is lower in IC50: 5 to 30 µM for the first, ≤ 0.5 µM for the second. The second is the more potent here.

CNC(=O)c1c(-c2ccc(F)cc2)oc2cc(N(CC(C)O)S(C)(=O)=O)c(O)cc12 (stereo not drawn) [Example 438, 2-(4-Fluoro-phenyl)-5-hydroxy-6-[(2-hydroxy-propyl)-methanesulfonyl-amino]-benzofuran-3-carboxylic acid methylamide] and CNC(=O)c1c(-c2ccc(F)cc2)oc2cc(N(CC(C)O)S(C)(=O)=O)c(OC)cc12 (stereo not drawn) [Example 439, 2-(4-Fluoro-phenyl)-6-[(2-hydroxy-propyl)-methanesulfonyl-amino]-5-methoxy-benzofuran-3-carboxylic acid methylamide] cannot be ordered by IC50: ≤ 0.5 µM for the first, ≤ 0.5 µM for the second.

CNC(=O)c1c(-c2ccc(F)cc2)oc2cc(C3CCCN3C(=O)C3CC3)c(OC(C)C)cc12 (stereo not drawn) [Example 448, 6-(1-Cyclopropanecarbonyl-pyrrolidin-2-yl)-2-(4-fluoro-phenyl)-5-isopropoxy-benzofuran-3-carboxylic acid methylamide] and CCc1cc2c(C(=O)NC)c(-c3ccc(F)cc3)oc2cc1C1CCCN1C(C)=O (stereo not drawn) [Example 440, 6-(1-Acetyl-pyrrolidin-2-yl)-5-ethyl-2-(4-fluoro-phenyl)-benzofuran-3-carboxylic acid methylamide] cannot be ordered by IC50: ≤ 0.5 µM for the first, ≤ 0.5 µM for the second.

CNC(=O)c1c(-c2ccc(F)cc2)oc2cc(N(CC(O)c3ccc(F)cc3)S(C)(=O)=O)c(O)cc12 (stereo not drawn) [Example 451, 2-(4-Fluoro-phenyl)-6-{[2-(4-fluoro-phenyl)-2-hydroxy-ethyl]-methanesulfonyl-amino}-5-hydroxy-benzofuran-3-carboxylic acid methylamide] and CNC(=O)c1c(-c2ccc(F)cc2)oc2cc(N(C)S(C)(=O)=O)c(-c3cccs3)cc12 [Example 450, 2-(4-Fluoro-phenyl)-6-(methanesulfonyl-methyl-amino)-5-thiophen-2-yl-benzofuran-3-carboxylic acid methylamide] cannot be ordered by IC50: ≤ 0.5 µM for the first, ≤ 0.5 µM for the second.

same assay, conditions: HCV NS5B RdRp, BB7; reported as range class; read-out: HCV pol-BB7 IC50

Work on CNC(=O)c1c(-c2ccc(F)cc2)oc2cc(OCc3ccccc3)c(OC(C)C)cc12 [Example 194, 6-Benzyloxy-2-(4-fluoro-phenyl)-5-isopropoxy-benzofuran-3-carboxylic acid methylamide] yielded an IC50 of 0.5 to 5 µM.

same assay, conditions: HCV NS5B RdRp, BB7 genotype 1b; read-out: HCV pol-BB7 IC50

First: CNC(=O)c1c(-c2ccc(F)cc2)oc2cc(Nc3cc(C)nn3C)c(OC(C)C)cc12 [Example 127, 6-(2,5-Dimethyl-2H-pyrazol-3-ylamino)-2-(4-fluoro-phenyl)-5-isopropoxy-benzofuran-3-carboxylic acid methylamide]
Second: CNC(=O)c1c(-c2ccc(F)cc2)oc2cc(C#N)c(OC(C)C)cc12 [Example 129, 6-Cyano-2-(4-fluoro-phenyl)-5-isopropoxy-benzofuran-3-carboxylic acid methylamide]
The IC50 of the first is higher: 5 to 30 µM for the first, ≤ 0.5 µM for the second. The second is the more potent here.

With CNC(=O)c1c(-c2ccc(F)cc2)oc2cc(N3CCOCC3)c(OCc3ccncc3)cc12 [Example 128, 2-(4-Fluoro-phenyl)-6-morpholin-4-yl-5-(pyridin-4-ylmethoxy)-benzofuran-3-carboxylic acid methylamide] the IC50 was ≤ 0.5 µM.

same assay, conditions: HCV NS5B polymerase, BB7 (genotype 1b); values given as range classes A-D; read-out: HCV pol-BB7 IC50

CNC(=O)c1c(-c2ccc(F)cc2F)oc2cc(-c3c(C)noc3C)c(OC)cc12 [Example 400, 2-(2,4-Difluoro-phenyl)-6-(3,5-dimethyl-isoxazol-4-yl)-5-methoxy-benzofuran-3-carboxylic acid methylamide] and CCOc1cc2c(C(=O)NC)c(-c3ccc(F)cc3)oc2cc1-c1c(C)noc1C [Example 414, 6-(3,5-Dimethyl-isoxazol-4-yl)-5-ethoxy-2-(4-fluoro-phenyl)-benzofuran-3-carboxylic acid methylamide] cannot be ordered by IC50: ≤ 0.5 µM for the first, ≤ 0.5 µM for the second.

CCN(CC)C(=O)COc1cc2c(C(=O)NC)c(-c3ccc(F)cc3)oc2cc1N(C)S(C)(=O)=O [Example 413, 5-Diethylcarbamoyl-methoxy-2-(4-fluoro-phenyl)-6-(methanesulfonyl-methyl-amino)-benzofuran-3-carboxylic acid methylamide] and CNC(=O)c1c(-c2ccc(F)cc2)oc2cc(N(C)S(C)(=O)=O)c(OCC(C)(C)O)cc12 [Example 412, 2-(4-Fluoro-phenyl)-5-(2-hydroxy-2-methyl-propoxy)-6-(methanesulfonyl-methyl-amino)-benzofuran-3-carboxylic acid methylamide] cannot be ordered by IC50: ≤ 0.5 µM for the first, ≤ 0.5 µM for the second.

CNC(=O)c1c(-c2ccc(F)cc2)oc2cc(-c3c(C)noc3C)c(OCCN3CCOCC3)cc12 [Example 433, 6-(3,5-Dimethyl-isoxazol-4-yl)-2-(4-fluoro-phenyl)-5-(2-morpholin-4-yl-ethoxy)-benzofuran-3-carboxylic acid methylamide] and CNC(=O)c1c(-c2ccc(F)cc2)oc2cc(-c3c(C)noc3C)c(OCCCN3CCCCC3)cc12 [Example 434, 6-(3,5-Dimethyl-isoxazol-4-yl)-2-(4-fluoro-phenyl)-5-(3-piperidin-1-yl-propoxy)-benzofuran-3-carboxylic acid methylamide] cannot be ordered by IC50: ≤ 0.5 µM for the first, 0.5 to 5 µM for the second.

CNC(=O)c1c(-c2ccc(F)cc2)oc2cc(C(C)=O)ccc12 [Example 411, 6-Acetyl-2-(4-fluoro-phenyl)-benzofuran-3-carboxylic acid methylamide] and CNC(=O)c1c(-c2ccc(F)cc2)oc2cc(CN3CC(O)=C(C#N)C3=O)c(OC)cc12 [Example 431, 6-(3-Cyano-4-hydroxy-2-oxo-2,5-dihydro-pyrrol-1-ylmethyl)-2-(4-fluoro-phenyl)-5-methoxy-benzofuran-3-carboxylic acid methylamide] cannot be ordered by IC50: 0.5 to 5 µM for the first, ≤ 0.5 µM for the second.

With CNC(=O)c1c(-c2ccc(F)cc2)oc2cc(N(C)S(C)(=O)=O)c(OCc3nccn3Cc3ccccc3)cc12 [Example 399, 5-(1-Benzyl-1H-imidazol-2-ylmethoxy)-2-(4-fluoro-phenyl)-6-(methanesulfonyl-methyl-amino)-benzofuran-3-carboxylic acid methylamide] the IC50 was ≤ 0.5 µM.

same assay, conditions: purified His-tagged NS5B (BB7), carboxyl terminal 21 amino acids removed; read-out: HCV pol-BB7 IC50

CNC(=O)c1c(-c2ccccc2)oc2ccc(OC(F)(F)F)cc12 [Example 2, 2-Phenyl-5-trifluoromethoxy-benzofuran-3-carboxylic acid methylamide] and CNC(=O)c1c(-c2ccc(F)cc2)oc2ccc(OCC(F)(F)F)cc12 [Example 64, 2-(4-Fluoro-phenyl)-5-(2,2,2-trifluoro-ethoxy)-benzofuran-3-carboxylic acid methylamide] fall in the same range of IC50: 0.5 to 5 µM for the first, 0.5 to 5 µM for the second.

— patent US7265152B2 (ViroPharma Incorporated, priority 2002, dated 2007)
